Laboratory results published in PubChem BioAssay AID1963864 (Molecular Pharmacology Branch, DTP, NCI, 2024).

Test system: KRAS PDC multicell spheroid viability
Test: Anticancer human tumor 521955-158-R6-J3-PDC patient-derived pancreatic carcinoma cell line growth inhibition [KRAS2]
Conditions: for IC50: curve of first compound; for viability, T/C: stronger effect = lower value
From the text: Multicellular complex tumor spheroid response to RAS pathway inhibitors in combination with a targeted agents in patient-derived cell lines with oncogenic KRAS variants from multiple cancer types
A high-throughput screen of multi-cell type tumor spheroids was designed to identify active combinations of targeted small molecules and KRAS pathway inhibitors. Complex spheroids include a stromal component modeled by human endothelial cells (HUVEC) and fibroblasts modeled by human mesenchymal stem cells (MSCs). The concentration ranges selected for each drug and investigational agent were based upon clinically achievable concentrations if the clinical Cmax of the agent was known.
Compounds. The drugs and investigational agents: BI-3406 (NSC825286), BAY-293 (NSC824723), batoprotafib (TNO155; NSC825523), sotorasib (AMG 510; NSC818433), MRTX1257 (NSC819558), elimusertib (BAY 1895344; NSC800525), molibresib (GSK525762; NSC774829), temuterkib (LY3214996; NSC803410), venetoclax (NSC766270), alisertib (NSC759677), olaparib (NSC753686), talazoparib (NSC767125), erdafitinib (NSC781556), ipatasertib (NSC767898), cabozantinib (NSC761068), nintedanib (NSC756659), abemaciclib (NSC768073), docetaxel (NSC628503), trametinib (NSC758246), and sapanisertib (NSC764658) were obtained from the National Cancer Institute (NCI) Developmental Therapeutics Program Chemical Repository. The FDA-approved anticancer drug set is available from the Developmental Therapeutics Program. […] The stock solutions were prepared in dimethyl sulfoxide (DMSO, Sigma-Aldrich, St. Louis, MO, cat. D2650) at 800-fold the tested concentration and stored at -70 degrees C prior to their use. All drugs and investigational agents were tested over a range starting from a high concentration at or near the clinical Cmax and decreasing in half-log increments. If the clinical Cmax for an agent had not been determined, the highest concentration tested was 10 microM.
Cell Culture. All cells were maintained in an incubator at 37 degrees C and 5% CO2 with 95% humidity. The PDC lines were cultured according to standard operating procedures established by the NCI PDMR (https://pdmr.cancer.gov/sops/default.htm). Briefly, all PDCs were thawed and cultured in Matrigel-coated flasks prepared with a working solution of 1X Ham's F-12 nutrient mix, without supplementation (Invitrogen, Waltham, MA, cat. 11765054), 100 U/mL penicillin-streptomycin (Invitrogen, cat. 15140122), and 2.5% Matrigel (Corning Inc., Corning, NY, cat. 354248) for the first three passages. All PDCs were cultured in complete DMEM/F-12 media containing advanced DMEM/F-12 (Invitrogen, cat. 12634028), 4.9% defined fetal bovine serum, heat inactivated (HyClone Laboratories Inc., Logan, UT, cat. SH30070.03HI), 389 ng/mL hydrocortisone (Sigma-Aldrich, cat. H4001), 9.7 ng/mL human EGF recombinant protein (Invitrogen, cat. PHG0313), 23.4 microg/mL adenine (Sigma-Aldrich, cat. A2786), 97.3 U/mL penicillin-streptomycin (Invitrogen, cat. 15140122), 1.9 mM L-glutamine (Invitrogen, cat. 25030081), and 9.7 microM Y-27632 dihydrochloride (Tocris Bioscience, Bristol, United Kingdom, cat. 1254). The PDCs were cultured in complete DMEM/F12 media without 9.7 microM Y-27632 dihydrochloride for at least two passages prior to the screen. The established cell line HOP-62 was cultured in RPMI 1640 medium, HEPES (Invitrogen, cat. 22400105) with 10% defined fetal bovine serum (HyClone Laboratories Inc., cat. SH30070.03) and 2 mM L-glutamine (Invitrogen, cat. 25030081). The pooled donor HUVEC were cultured in endothelial cell growth medium 2 (PromoCell, Heidelberg, Germany, cat. C-22011) and the hMSC were cultured in mesenchymal stem cell growth medium 2 (PromoCell, cat. C-28009). For all experiments, HUVEC and hMSC were used at passages </=5, while the malignant cell lines were used at passages </=15. […]

[1] = second compound 0.1 µM, first compound 0.00316 µM
[2] = second compound 0.1 µM, first compound 0.01 µM
[3] = second compound 0.1 µM, first compound 0.0316 µM
[4] = second compound 0.1 µM, first compound 0.1 µM
[5] = second compound 0.316 µM, first compound 0.00316 µM
[6] = second compound 0.316 µM, first compound 0.01 µM
[7] = second compound 0.316 µM, first compound 0.0316 µM
[8] = second compound 0.316 µM, first compound 0.1 µM
[9] = second compound 1 µM, first compound 0.00316 µM
[10] = second compound 1 µM, first compound 0.01 µM
[11] = second compound 1 µM, first compound 0.0316 µM
[12] = second compound 1 µM, first compound 0.1 µM
[13] = second compound 3.16 µM, first compound 0.00316 µM
[14] = second compound 3.16 µM, first compound 0.01 µM
[15] = second compound 3.16 µM, first compound 0.0316 µM
[16] = second compound 3.16 µM, first compound 0.1 µM
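Also: drug exposure lasted seven days.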
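For viability, T/C in this document: 100% = DMSO vehicle wells and lower means fewer viable cells.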

In the case of CC(C)n1nc(-c2ccc3oc(N)nc3c2)c2c(N)ncnc21 + C=CC(=O)N1CCN(c2nc(OCC3CCCN3C)nc3c2CCN(c2cccc4cccc(C)c24)C3)CC1CC#N, the IC50 (second compound 0.0316 µM) is reported as 0.0691 µM, the IC50 (second compound 0.1 µM) is reported as 0.0679 µM and the IC50 (second compound 0.316 µM) is reported as 0.0728 µM. For the same compound, the IC50 (second compound 1 µM) was 0.0871 µM, the IC50 (second compound 3.16 µM) was 0.00347 µM and the viability, T/C (second compound 0.0316 µM, first compound 0.000316 µM) was 98%. It also gave a viability, T/C (second compound 0.0316 µM, first compound 0.001 µM) of 86.7%, a viability, T/C (second compound 0.0316 µM, first compound 0.00316 µM) of 85.4% and a viability, T/C (second compound 0.0316 µM, first compound 0.01 µM) of 62.3%. For the same compound, the viability, T/C (second compound 0.0316 µM, first compound 0.0316 µM) was 63%, the viability, T/C (second compound 0.0316 µM, first compound 0.1 µM) was 44.8% and the viability, T/C (second compound 0.1 µM, first compound 0.000316 µM) was 90.8%. It also gave a viability, T/C (second compound 0.1 µM, first compound 0.001 µM) of 86.4%, a viability, T/C [1] of 78.2% and a viability, T/C [2] of 77.6%. The viability, T/C [3] was 59.8%, the viability, T/C [4] was 44.2% and the viability, T/C (second compound 0.316 µM, first compound 0.000316 µM) was 94.2%. It also gave a viability, T/C (second compound 0.316 µM, first compound 0.001 µM) of 90.7%, a viability, T/C [5] of 80.6% and a viability, T/C [6] of 74.4%. For the same compound, the viability, T/C [7] was 60.3%, the viability, T/C [8] was 45.9% and the viability, T/C (second compound 1 µM, first compound 0.000316 µM) was 81.8%. The viability, T/C (second compound 1 µM, first compound 0.001 µM) was 68.6%, the viability, T/C [9] was 73.3% and the viability, T/C [10] was 54.2%. The viability, T/C [11] was 61.2%, the viability, T/C [12] was 47% and the viability, T/C (second compound 3.16 µM, first compound 0.000316 µM) was 60.7%. For the same compound, the viability, T/C (second compound 3.16 µM, first compound 0.001 µM) was 41.7%, the viability, T/C [13] was 54.5% and the viability, T/C [14] was 8.94%. For the same compound, the viability, T/C [15] was 39.6% and the viability, T/C [16] was 21.8%.

In the case of CCN1CCN(Cc2ccc(Nc3ncc(F)c(-c4cc(F)c5nc(C)n(C(C)C)c5c4)n3)nc2)CC1 + C=CC(=O)N1CCN(c2nc(=O)n(-c3c(C)ccnc3C(C)C)c3nc(-c4c(O)cccc4F)c(F)cc23)C(C)C1, the IC50 (second compound 0.1 µM) is reported as > 1 µM, the IC50 (second compound 0.316 µM) is reported as > 1 µM and the IC50 (second compound 1 µM) is reported as > 1 µM. For the same compound, the IC50 (second compound 3.16 µM) was > 1 µM, the IC50 (second compound 10 µM) was > 1 µM and the viability, T/C [1] was 102%. It also gave a viability, T/C [2] of 88.8%, a viability, T/C [3] of 86.1% and a viability, T/C [4] of 74.2%. It also gave a viability, T/C (second compound 0.1 µM, first compound 0.316 µM) of 83.6%, a viability, T/C (second compound 0.1 µM, first compound 1 µM) of 97.6% and a viability, T/C [5] of 95.8%. It also gave a viability, T/C [6] of 90.6%, a viability, T/C [7] of 78.7% and a viability, T/C [8] of 86%. It also gave a viability, T/C (second compound 0.316 µM, first compound 0.316 µM) of 88.2%, a viability, T/C (second compound 0.316 µM, first compound 1 µM) of 88.5% and a viability, T/C [9] of 111%. For the same compound, the viability, T/C [10] was 91.9%, the viability, T/C [11] was 111% and the viability, T/C [12] was 94.3%. It also gave a viability, T/C (second compound 1 µM, first compound 0.316 µM) of 85.6%, a viability, T/C (second compound 1 µM, first compound 1 µM) of 125% and a viability, T/C [13] of 87.6%. The viability, T/C [14] was 89.4%, the viability, T/C [15] was 101% and the viability, T/C [16] was 90.3%. For the same compound, the viability, T/C (second compound 3.16 µM, first compound 0.316 µM) was 109%, the viability, T/C (second compound 3.16 µM, first compound 1 µM) was 114% and the viability, T/C (second compound 10 µM, first compound 0.00316 µM) was 63.2%. It also gave a viability, T/C (second compound 10 µM, first compound 0.01 µM) of 73.2%, a viability, T/C (second compound 10 µM, first compound 0.0316 µM) of 75.3% and a viability, T/C (second compound 10 µM, first compound 0.1 µM) of 70.4%. For the same compound, the viability, T/C (second compound 10 µM, first compound 0.316 µM) was 85.5% and the viability, T/C (second compound 10 µM, first compound 1 µM) was 114%.
